Measurements: patent publication US20090239918A1, “SELECTIVE SUBTYPE ALPHA 2 ADRENERGIC AGENTS AND METHODS FOR USE THEREOF” (ALLERGAN, INC., priority 2008, published 2009)

Experiments:
Alpha 2B receptor = target: T1, Alpha 2B receptor (Homo sapiens, UniProt P18089); assay: RSAT (Receptor Selection and Amplification Technology) assay, alpha 2B; format: cell-based; details: for EC50: NIH-3T3 cells cotransfected with receptor and Gq/i5, na = not active; for RSAT (rel eff) Alpha 2B, intrinsic activity: ratio of maximal effect of the drug to maximal effect of standard full agonist brimonidine
T1 construct: expressed in transfected cells; host or cells: NIH-3T3
T1 sequence (P18089 1-450): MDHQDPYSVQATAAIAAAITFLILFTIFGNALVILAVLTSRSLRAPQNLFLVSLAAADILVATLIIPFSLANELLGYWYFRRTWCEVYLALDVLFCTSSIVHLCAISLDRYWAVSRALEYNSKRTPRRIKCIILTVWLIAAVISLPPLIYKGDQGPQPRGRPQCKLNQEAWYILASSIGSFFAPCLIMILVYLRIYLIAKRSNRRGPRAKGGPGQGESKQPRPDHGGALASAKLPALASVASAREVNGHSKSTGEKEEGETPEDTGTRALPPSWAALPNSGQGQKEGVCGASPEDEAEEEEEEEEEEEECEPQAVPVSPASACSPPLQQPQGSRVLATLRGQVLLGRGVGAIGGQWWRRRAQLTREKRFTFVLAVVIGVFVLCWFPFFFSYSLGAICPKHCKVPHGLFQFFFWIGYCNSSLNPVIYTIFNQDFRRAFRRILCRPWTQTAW
Method: (§1) 76, pp. 308-311 (incorporated herein by reference) and is also described below.
(§2) The RSAT assay measures a receptor-mediated loss of contact inhibition that results in selective proliferation of receptor-containing cells in a mixed population of confluent cells. The increase in cell number is assessed with an appropriate transfected marker gene such as β-galactosidase, the activity of which can be easily measured in a 96-well format. Receptors that activate the G protein, Gq, elicit this response. Alpha 2 receptors, which normally couple to Gi, activate the RSAT response when coexpressed with a hybrid Gq protein that has a Gi receptor recognition domain, called Gq/i5.
(§3) NIH-3T3 cells are plated at a density of 2×10^6 cells in 15 cm dishes and maintained in Dulbecco's modified Eagle's medium supplemented with 10% calf serum. One day later, cells are cotransfected by calcium phosphate precipitation with mammalian expression plasmids encoding p-SV-β-galactosidase (5-10 μg), receptor (1-2 μg) and G protein (1-2 μg). 40 μg salmon sperm DNA may also be included in the transfection mixture. Fresh media is added on the following day and 1-2 days later, cells are harvested and frozen in 50 assay aliquots. Cells are thawed and 100 μl added to 100 μL aliquots of various concentrations of drugs in triplicate in 96-well dishes. Incubations continue 72-96 hr at 37° C. After washing with phosphate-buffered saline, β-galactosidase enzyme activity is determined by adding 200 μL of the chromogenic substrate (consisting of 3.5 mM o-nitrophenyl-β-D-galactopyranoside and 0.5% nonidet P-40 in phosphate buffered saline), incubating overnight at 30° C. and measuring optical density at 420 nm. The absorbance is a measure of enzyme activity, which depends on cell number and reflects a receptor-mediated cell proliferation. The efficacy or intrinsic activity is calculated as a ratio of the maximal effect of the drug to the maximal effect of a standard full agonist for each receptor subtype. Brimonidine, the chemical structure of which is shown below, is used as the standard agonist for the alpha 2B and alpha 2C receptors.

Alpha 2C receptor = target: T2, Alpha 2C receptor (Homo sapiens, UniProt P18825); assay: RSAT (Receptor Selection and Amplification Technology) assay, alpha 2C; format: cell-based; details: for EC50: NIH-3T3 cells cotransfected with receptor and Gq/i5, na = not active; for RSAT (rel eff) Alpha 2C, intrinsic activity: ratio of maximal effect of the drug to maximal effect of standard full agonist brimonidine
T2 construct: expressed in transfected cells; host or cells: NIH-3T3
T2 sequence (P18825 1-462): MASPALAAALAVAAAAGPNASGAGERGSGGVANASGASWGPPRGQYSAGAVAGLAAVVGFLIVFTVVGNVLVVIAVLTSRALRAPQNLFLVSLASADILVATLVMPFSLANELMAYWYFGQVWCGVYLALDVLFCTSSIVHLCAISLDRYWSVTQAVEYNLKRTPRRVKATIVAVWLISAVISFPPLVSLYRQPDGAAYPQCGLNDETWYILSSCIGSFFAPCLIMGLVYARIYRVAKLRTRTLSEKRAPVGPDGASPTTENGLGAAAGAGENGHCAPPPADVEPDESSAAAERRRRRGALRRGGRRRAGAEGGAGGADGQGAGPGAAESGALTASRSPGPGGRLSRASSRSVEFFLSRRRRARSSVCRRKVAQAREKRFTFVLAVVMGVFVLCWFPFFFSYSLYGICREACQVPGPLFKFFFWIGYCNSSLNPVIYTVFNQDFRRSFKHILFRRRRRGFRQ
Method: as §1, §2, §3

Cc1ccc(CC(N=C2NCCN2)c2cccc(Cl)c2)cc1 (stereo not drawn)
EC50 (Alpha 2B receptor): 5.61 nM
RSAT (rel eff) Alpha 2B, intrinsic activity (Alpha 2B receptor): 0.69

Cc1cccc(CC(/N=C2/NCCS2)c2cccc(Cl)c2)c1 (stereo not drawn)
EC50 (Alpha 2B receptor): 2.96 nM
RSAT (rel eff) Alpha 2B, intrinsic activity (Alpha 2B receptor): 0.82
EC50 (Alpha 2C receptor): 4.33 nM
RSAT (rel eff) Alpha 2C, intrinsic activity (Alpha 2C receptor): 0.44

Cc1ccccc1CC(/N=C1/NCCS1)c1cccc(Cl)c1 (stereo not drawn)
EC50 (Alpha 2B receptor): 3.29 nM
RSAT (rel eff) Alpha 2B, intrinsic activity (Alpha 2B receptor): 0.89
EC50 (Alpha 2C receptor): 8.34 nM
RSAT (rel eff) Alpha 2C, intrinsic activity (Alpha 2C receptor): 0.46

Oc1cccc(CC(NC2=NCCN2)c2cccc(Cl)c2Cl)c1 (stereo not drawn)
EC50 (Alpha 2B receptor): 1.55 nM
RSAT (rel eff) Alpha 2B, intrinsic activity (Alpha 2B receptor): 1.05

Cc1cccc(C(Cc2ccccc2)N=C2NCCN2)c1C (stereo not drawn)
EC50 (Alpha 2B receptor): 2.54 nM
RSAT (rel eff) Alpha 2B, intrinsic activity (Alpha 2B receptor): 0.83

Clc1ccc(Cl)c(CC(N=C2NCCN2)c2cccc(Cl)c2Cl)c1 (stereo not drawn)
EC50 (Alpha 2B receptor): 1.02 nM
RSAT (rel eff) Alpha 2B, intrinsic activity (Alpha 2B receptor): 0.98
EC50 (Alpha 2C receptor): 3.92 nM
RSAT (rel eff) Alpha 2C, intrinsic activity (Alpha 2C receptor): 0.39

Fc1cccc(Cl)c1CC(N=C1NCCN1)c1cccc(Cl)c1Cl (stereo not drawn)
EC50 (Alpha 2B receptor): 12.5 nM
RSAT (rel eff) Alpha 2B, intrinsic activity (Alpha 2B receptor): 0.89

Clc1cccc(C(Cc2ccccc2Br)NC2=NCCO2)c1 (stereo not drawn)
EC50 (Alpha 2B receptor): 0.86 nM
RSAT (rel eff) Alpha 2B, intrinsic activity (Alpha 2B receptor): 0.92

Clc1cccc(C(Cc2ccccc2)/N=C2/NCCS2)c1 (stereo not drawn)
EC50 (Alpha 2B receptor): 6.49 nM
RSAT (rel eff) Alpha 2B, intrinsic activity (Alpha 2B receptor): 0.89
EC50 (Alpha 2C receptor): 4.71 nM
RSAT (rel eff) Alpha 2C, intrinsic activity (Alpha 2C receptor): 0.33

Clc1cccc(C(Cc2ccccc2)N=C2NCCN2)c1 (stereo not drawn)
EC50 (Alpha 2B receptor): 5.91 nM
RSAT (rel eff) Alpha 2B, intrinsic activity (Alpha 2B receptor): 0.76

Fc1c(Cl)cccc1C(Cc1ccccc1)N=C1NCCN1 (stereo not drawn)
EC50 (Alpha 2B receptor): 3.57 nM
RSAT (rel eff) Alpha 2B, intrinsic activity (Alpha 2B receptor): 0.85
EC50 (Alpha 2C receptor): 1.97 nM
RSAT (rel eff) Alpha 2C, intrinsic activity (Alpha 2C receptor): 0.39

Fc1c(Cl)cccc1C(Cc1ccccc1)/N=C1\NCCO1 (stereo not drawn)
EC50 (Alpha 2B receptor): 2.79 nM
RSAT (rel eff) Alpha 2B, intrinsic activity (Alpha 2B receptor): 0.93
EC50 (Alpha 2C receptor): 2.57 nM
RSAT (rel eff) Alpha 2C, intrinsic activity (Alpha 2C receptor): 0.32

Fc1c(Cl)cccc1C(Cc1ccccc1)/N=C1/NCCS1 (stereo not drawn)
EC50 (Alpha 2B receptor): 4.54 nM
RSAT (rel eff) Alpha 2B, intrinsic activity (Alpha 2B receptor): 0.89
EC50 (Alpha 2C receptor): 6.48 nM
RSAT (rel eff) Alpha 2C, intrinsic activity (Alpha 2C receptor): 0.38

Clc1ccc(CC(NC2=NCCN2)c2cccc(Cl)c2Cl)cc1Cl (stereo not drawn)
EC50 (Alpha 2B receptor): 10.8 nM
RSAT (rel eff) Alpha 2B, intrinsic activity (Alpha 2B receptor): 0.96

COc1ccccc1CC(NC1=NCCO1)c1cccc(Cl)c1 (stereo not drawn)
EC50 (Alpha 2B receptor): 0.63 nM
RSAT (rel eff) Alpha 2B, intrinsic activity (Alpha 2B receptor): 0.91

Fc1ccc(CC(N=C2NCCN2)c2cccc(Cl)c2Cl)cc1 (stereo not drawn)
EC50 (Alpha 2B receptor): 3.73 nM
RSAT (rel eff) Alpha 2B, intrinsic activity (Alpha 2B receptor): 0.89

Cc1c(F)cccc1CC(N=C1NCCN1)c1cccc(Cl)c1Cl (stereo not drawn)
EC50 (Alpha 2B receptor): 8.04 nM
RSAT (rel eff) Alpha 2B, intrinsic activity (Alpha 2B receptor): 0.95
EC50 (Alpha 2C receptor): 3.54 nM
RSAT (rel eff) Alpha 2C, intrinsic activity (Alpha 2C receptor): 0.31

Cc1ccccc1CC(/N=C1\NCCO1)c1cccc(Cl)c1 (stereo not drawn)
EC50 (Alpha 2B receptor): 1.52 nM
RSAT (rel eff) Alpha 2B, intrinsic activity (Alpha 2B receptor): 0.87
EC50 (Alpha 2C receptor): 1.46 nM
RSAT (rel eff) Alpha 2C, intrinsic activity (Alpha 2C receptor): 0.39
